{"source": "patent US20250340575A1", "about": "“4-AMINOPYRROLO[2,1-F][1,2,4]TRIAZINES AND PREPARATION AND USES THEREOF” (Biosplice Therapeutics, Inc., priority 2024, published 2025)", "data": [{"molecular_target": "recombinant DYRK1A kinase (Homo sapiens, UniProt Q13627)", "test": "DYRK1A kinase assay (Ser/Thr 18 peptide Z-lyte FRET)", "type": "biochemical", "conditions": "DYRK1A 0.25 μg/mL, ATP 15 μM, Ser/Thr peptide 18 4 μM, one hour at room temperature, 11-point dose-response from 10 μM", "protocol": "Representative compounds were screened using the assay procedure for DYRK1A kinase activity as described below.\nEach compound was dissolved in DMSO as a 10 mM stock and used to prepare compound source plates. Serial dilution (1:3, 11-point dose-response curves from 10 μM to 0.00016 μM) and compound transfer was performed using the ECHO 550 (Labcyte, Sunnyvale, CA) into 1536-well black-walled round bottom plates (Corning).\nThe DYRK1A kinase assay was run using the Ser/Thr 18 peptide Z-lyte assay kit according to manufacturer's instructions (Life Technologies—a Division of Thermo-Fisher). This is a non-radioactive assay using fluorescence resonance energy transfer (FRET) between coumarin and fluorescein to detect kinase activity which is represented as a ratio of coumarin emission/fluorescein emission.\nBriefly, recombinant DYRK1A kinase, ATP and Ser/Thr peptide 18 were prepared in 1× Kinase buffer to final concentrations of 0.25 μg/mL, 15 μM, and 4 μM respectively. The mixture was allowed to incubate with the representative compounds for one hour at room temperature. All reactions were performed in duplicate. Unphosphorylated (“0% Control”) and phosphorylated (“100% control”) forms of Ser/Thr 18 served as control reactions. Additionally, an 11-point dose-response curve of Staurosporine (1 uM top) was run to serve as a positive compound control.\nAfter incubation, Development Reagent A was diluted in Development Buffer then added to the reaction and allowed to further incubate for one hour at room temperature. The plate was read at Ex 400 Em 455 to detect the coumarin signal and Ex 400 Em 520 to measure the signal (EnVision Multilabel Plate Reader, PerkinElmer).\nThe Emission ratio (Em) was calculated as a ratio of the coumarin (C) emission signal (at 445 nm)/Fluorescein (F) emission signal (at 520 nm). The percent phosphorylation was then calculated using the following formula: [1−((Em ratio×F100%)−C100%)/((C0%−C100%)+(Em ratio×(F100%−F0%)))]. Dose-response curves were generated, and inhibitory concentration (IC50) values were calculated using non-linear regression curve fit in the Dotmatics' Studies Software (Bishops Stortford, UK).", "units": {"IC50": "nM"}, "values": [{"smiles": "CNc1nc(N[C@@H]2CCN(C)CC2(F)F)nn2cc(F)c(-c3ccc4nc(C)n(CCF)c4n3)c12", "note": "[Compound 165, (R)—N^2-(3,3-Difluoro-1-methylpiperidin-4-yl)-6-fluoro-5-(3-(2-fluoroethyl)-2-methyl-3H-imidazo[4,5-b]pyridin-5-yl)-N^4-methylpyrrolo[2,1-f][1,2,4]triazine-2,4-diamine]", "IC50": 2.3}, {"smiles": "CNc1nc(N[C@@H]2CCN(C(C)=O)CC2(F)F)nn2cc(F)c(-c3ccc4nc(C)n(CCF)c4n3)c12", "note": "[Compound 166, (R)-1-(3,3-Difluoro-4-((6-fluoro-5-(3-(2-fluoroethyl)-2-methyl-3H-imidazo [4,5-b]pyridin-5-yl)-4-(methylamino)pyrrolo[2,1-f][1,2,4]triazin-2-yl)amino)piperidin-1-yl)ethan-1-one]", "IC50": 2.9}, {"smiles": "CNc1nc(N[C@@H]2CCN(C3COC3)CC2(F)F)nn2cc(F)c(-c3ccc4nc(C)n(CCF)c4n3)c12", "note": "[Compound 168, (R)—N^2-(3,3-Difluoro-1-(oxetan-3-yl)piperidin-4-yl)-6-fluoro-5-(3-(2-fluoroethyl)-2-methyl-3H-imidazo[4,5-b]pyridin-5-yl)-N^4-methylpyrrolo[2,1-f][1,2,4]triazine-2,4-diamine]", "IC50": 1.4}, {"smiles": "CNc1nc(N[C@H]2CCN(C(=O)CO)C[C@H]2F)nn2ccc(-c3ccc4nc(C)n(CC(F)F)c4n3)c12", "note": "[Compound 174, 1-((3R,4S)-4-((5-(3-(2,2-Difluoroethyl)-2-methyl-3H-imidazo[4,5-b]pyridin-5-yl)-4-(methylamino)pyrrolo[2,1-f][1,2,4]triazin-2-yl)amino)-3-fluoropiperidin-1-yl)-2-hydroxyethan-1-one]", "IC50": 2}, {"smiles": "CNc1nc(N[C@@H]2CCN(C(=O)CO)CC2(F)F)nn2ccc(-c3ccc4nc(C)n(CC(F)F)c4n3)c12", "note": "[Compound 175, (R)-1-(4-((5-(3-(2,2-Difluoroethyl)-2-methyl-3H-imidazo[4,5-b]pyridin-5-yl)-4-(methylamino)pyrrolo[2,1-f][1,2,4]triazin-2-yl)amino)-3,3-difluoropiperidin-1-yl)-2-hydroxyethan-1-one]", "IC50": 1.3}, {"smiles": "CNc1nc(N[C@@H]2CCN(C(C)=O)CC2(F)F)nn2cc(F)c(-c3ccc4nc(C)n(CC(F)F)c4n3)c12", "note": "[Compound 177, (R)-1-(4-((5-(3-(2,2-Difluoroethyl)-2-methyl-3H-imidazo[4,5-b]pyridin-5-yl)-6-fluoro-4-(methylamino)pyrrolo[2,1-f][1,2,4]triazin-2-yl)amino)-3,3-difluoropiperidin-1-yl)ethan-1-one]", "IC50": 1.5}, {"smiles": "CCn1nnc2ccc(-c3c(F)cn4nc(N[C@H]5CCN(C6COC6)C[C@H]5F)nc(NC)c34)nc21", "note": "[Compound 214, 5-(3-Ethyl-3H-[1,2,3]triazolo[4,5-b]pyridin-5-yl)-6-fluoro-N^2-((3R,4S)-3-fluoro-1-(oxetan-3-yl)piperidin-4-yl)-N^4-methylpyrrolo[2,1-f][1,2,4]triazine-2,4-diamine]", "IC50": 4.9}, {"smiles": "CCn1nnc2ccc(-c3c(F)cn4nc(N[C@@H]5CCN(C)CC5(F)F)nc(NC)c34)nc21", "note": "[Compound 215, (R)—N^2-(3,3-Difluoro-1-methylpiperidin-4-yl)-5-(3-ethyl-3H-[1,2,3]triazolo [4,5-b]pyridin-5-yl)-6-fluoro-N^4-methylpyrrolo[2,1-f][1,2,4]triazine-2,4-diamine]", "IC50": 2.3}, {"smiles": "CCn1nnc2ccc(-c3c(F)cn4nc(N[C@@H]5CCN(C(C)=O)CC5(F)F)nc(NC)c34)nc21", "note": "[Compound 216, (R)-1-(4-((5-(3-Ethyl-3H-[1,2,3]triazolo[4,5-b]pyridin-5-yl)-6-fluoro-4-(methylamino)pyrrolo[2,1-f][1,2,4]triazin-2-yl)amino)-3,3-difluoropiperidin-1-yl)ethan-1-one]", "IC50": 2.6}, {"smiles": "Nc1nc(N[C@H]2CCN(C3COC3)C[C@H]2F)nn2ccc(-c3ccc4nnn(CCF)c4n3)c12", "note": "[Compound 220, N^2-((3R,4S)-3-Fluoro-1-(oxetan-3-yl)piperidin-4-yl)-5-(3-(2-fluoroethyl)-3H-[1,2,3]triazolo[4,5-b]pyridin-5-yl)pyrrolo[2,1-f][1,2,4]triazine-2,4-diamine]", "IC50": 5.2}, {"smiles": "CN1CC[C@@H](Nc2nc(N)c3c(-c4ccc5nnn(CCF)c5n4)ccn3n2)C(F)(F)C1", "note": "[Compound 221, (R)—N^2-(3,3-Difluoro-1-methylpiperidin-4-yl)-5-(3-(2-fluoroethyl)-3H-[1,2,3]triazolo[4,5-b]pyridin-5-yl)pyrrolo[2,1-f][1,2,4]triazine-2,4-diamine]", "IC50": 2.8}, {"smiles": "CC(=O)N1CC[C@@H](Nc2nc(N)c3c(-c4ccc5nnn(CCF)c5n4)ccn3n2)C(F)(F)C1", "note": "[Compound 222, (R)-1-(4-((4-Amino-5-(3-(2-fluoroethyl)-3H-[1,2,3]triazolo[4,5-b]pyridin-5-yl)pyrrolo[2,1-f][1,2,4]triazin-2-yl)amino)-3,3-difluoropiperidin-1-yl)ethan-1-one]", "IC50": 3.2}, {"smiles": "CNc1nc(NC2CCC(F)(F)CC2)nn2ccc(-c3ccc4nnn(CCF)c4n3)c12", "note": "[Compound 233, N^2-(4,4-Difluorocyclohexyl)-5-(3-(2-fluoroethyl)-3H-[1,2,3]triazolo[4,5-b]pyridin-5-yl)-N^4-methylpyrrolo[2,1-f][1,2,4]triazine-2,4-diamine]", "IC50": 8.1}, {"smiles": "CNc1nc(N[C@H]2CC[C@](C)(O)CC2)nn2ccc(-c3ccc4nnn(CCF)c4n3)c12", "note": "[Compound 234, (1r,4r)-4-((5-(3-(2-Fluoroethyl)-3H-[1,2,3]triazolo[4,5-b]pyridin-5-yl)-4-(methylamino)pyrrolo[2,1-f][1,2,4]triazin-2-yl)amino)-1-methylcyclohexan-1-ol]", "IC50": 0.8}, {"smiles": "CNc1nc(N[C@H]2CCN(C(C)=O)C[C@H]2F)nn2ccc(-c3ccc4nnn(CCF)c4n3)c12", "note": "[Compound 235, 1-((3R,4S)-3-Fluoro-4-((5-(3-(2-fluoroethyl)-3H-[1,2,3]triazolo[4,5-b]pyridin-5-yl)-4-(methylamino)pyrrolo[2,1-f][1,2,4]triazin-2-yl)amino)piperidin-1-yl)ethan-1-one]", "IC50": 2}, {"smiles": "CNc1nc(N[C@H]2CCN(C3COC3)C[C@H]2F)nn2ccc(-c3ccc4nnn(CCF)c4n3)c12", "note": "[Compound 236, N^2-((3R,4S)-3-fluoro-1-(oxetan-3-yl)piperidin-4-yl)-5-(3-(2-fluoroethyl)-3H-[1,2,3]triazolo[4,5-b]pyridin-5-yl)-N^4-methylpyrrolo[2,1-f][1,2,4]triazine-2,4-diamine]", "IC50": 2.1}, {"smiles": "CNc1nc(N[C@@H]2CCN(C)CC2(F)F)nn2ccc(-c3ccc4nnn(CCF)c4n3)c12", "note": "[Compound 237, (R)—N^2-(3,3-Difluoro-1-methylpiperidin-4-yl)-5-(3-(2-fluoroethyl)-3H-[1,2,3]triazolo[4,5-b]pyridin-5-yl)-N^4-methylpyrrolo[2,1-f][1,2,4]triazine-2,4-diamine]", "IC50": 0.7}, {"smiles": "CNc1nc(N[C@@H]2CCN(C(C)=O)CC2(F)F)nn2ccc(-c3ccc4nnn(CCF)c4n3)c12", "note": "[Compound 238, (R)-1-(3,3-Difluoro-4-((5-(3-(2-fluoroethyl)-3H-[1,2,3]triazolo[4,5-b]pyridin-5-yl)-4-(methylamino)pyrrolo[2,1-f][1,2,4]triazin-2-yl)amino)piperidin-1-yl)ethan-1-one]", "IC50": 1.4}, {"smiles": "CNc1nc(N[C@@H]2CCN(C3COC3)CC2(F)F)nn2ccc(-c3ccc4nnn(CCF)c4n3)c12", "note": "[Compound 239, (R)—N^2-(3,3-Difluoro-1-(oxetan-3-yl)piperidin-4-yl)-5-(3-(2-fluoroethyl)-3H-[1,2,3]triazolo[4,5-b]pyridin-5-yl)-N^4-methylpyrrolo[2,1-f][1,2,4]triazine-2,4-diamine]", "IC50": 0.6}, {"smiles": "CNc1nc(N[C@H]2CC[C@](C)(O)CC2)nn2cc(F)c(-c3ccc4nnn(CCF)c4n3)c12", "note": "[Compound 248, (1r,4r)-4-((6-Fluoro-5-(3-(2-fluoroethyl)-3H-[1,2,3]triazolo[4,5-b]pyridin-5-yl)-4-(methylamino)pyrrolo[2,1-f][1,2,4]triazin-2-yl)amino)-1-methylcyclohexan-1-ol]", "IC50": 2}, {"smiles": "CNc1nc(N[C@H]2CCN(C(C)=O)C[C@H]2F)nn2cc(F)c(-c3ccc4nnn(CCF)c4n3)c12", "note": "[Compound 249, 1-((3R,4S)-3-Fluoro-4-((6-fluoro-5-(3-(2-fluoroethyl)-3H-[1,2,3]triazolo[4,5-b]pyridin-5-yl)-4-(methylamino)pyrrolo[2,1-f][1,2,4]triazin-2-yl)amino)piperidin-1-yl)ethan-1-one]", "IC50": 1.9}, {"smiles": "CNc1nc(N[C@H]2CCN(C3COC3)C[C@H]2F)nn2cc(F)c(-c3ccc4nnn(CCF)c4n3)c12", "note": "[Compound 250, 6-Fluoro-N^2-((3R,4S)-3-fluoro-1-(oxetan-3-yl)piperidin-4-yl)-5-(3-(2-fluoroethyl)-3H-[1,2,3]triazolo[4,5-b]pyridin-5-yl)-N^4-methylpyrrolo[2,1-f][1,2,4]triazine-2,4-diamine]", "IC50": 0.7}]}]}
